Measured values: patent publication US20050272647A1, “Arthrodial cartilage extracellular matrix degradation inhibitor” (priority 2002, published 2005)
Structures can show the parent of a compound that is named as a salt.

Columns and labels:
HDAC = settings: literature value, cited from earlier work; for IC50: read-out: HDAC inhibitory activity (IC50 value); for HDAC inhibitory activity (order of magnitude): Nat. Rev. Drug Discov. 2002
[1] = test system: rabbit knee articular cartilage primary culture cells; assay: PG destruction inhibitory activity in rabbit cartilage primary culture cell (stimulation with retinoic acid); settings: Oryctolagus cuniculus, 48 h, read-out: PG degradation inhibition (%)
Protocol: After a rabbit (Japanese white race, male, 1.0 to 1.5 kg) was killed under excessive anesthesia, the knee joint was taken out and the cartilage layer on the articular surface was abraded and cut finely. […] After 3 days, the medium was replaced by 200 μl of DMEM/10% FBS medium containing 50 μg/ml ascorbic acid (hereinafter referred to as ascorbic acid medium) and two days of culture was further repeated twice. Thereafter, the rabbit knee articular cartilage primary culture cells were cultured in 200 μl of the ascorbic acid medium containing Na2 35SO4 of a final concentration of 10 μCi/ml for 3 days to achieve labeling, followed by washing with 200 μl of the ascorbic acid medium three times and 1 day of culture in 200 μl of the ascorbic medium. The culture was stimulated with all-trans retinoic acid (manufactured by Sigma) of a final concentration of 1 μM. A culture supernatant after 48 hours was recovered in an each amount of 20 μl and radioactivity was measured using Topcount (manufactured by Packard). The test compound was added simultaneously with the start of the stimulation and a PG degradation inhibitory activity was calculated as percentage where a group to which retinoic acid was not added was defined as 100% and a group to which retinoic acid was added was defined as 0%.

[2] = test system: rabbit cartilage primary culture cells; assay: PG destruction inhibitory activity in rabbit cartilage primary culture cell (stimulation with IL-1); settings: Oryctolagus cuniculus, 48 h, read-out: PG degradation inhibition (%)
Protocol: After a rabbit (Japanese white race, male, 1.0 to 1.5 kg) was killed under excessive anesthesia, the knee joint was taken out and the cartilage layer on the articular surface was abraded and cut finely. […] After 3 days, the medium was replaced by 200 μl of DMEM/10% FBS medium containing 50 μg/ml ascorbic acid (hereinafter referred to as ascorbic acid medium) and two days of culture was further repeated twice. Thereafter, the rabbit knee articular cartilage primary culture cells were cultured in 200 μl of the ascorbic acid medium containing Na2 35SO4 of a final concentration of 10 μCi/ml for 3 days to achieve labeling, followed by washing with 200 μl of the ascorbic acid medium three times and 1 day of culture in 200 μl of the ascorbic medium.
They were stimulated with human IL-1β (manufactured by R&D System) of a final concentration of 10 ng/ml. A culture supernatant after 48 hours was recovered in an each amount of 20 μl and radioactivity was measured using Topcount (manufactured by Packard). The test compound was added simultaneously with the start of the stimulation and a PG degradation inhibitory activity was calculated as percentage where a group to which IL-1 was not added was defined as 100% and a group to which IL-1 was added was defined as 0%.

[3] = test system: histone deacetylase fraction; assay: HDAC inhibitory activity, [3H]acetylhistone and histone deacetylase fraction (method of Yoshida et al.); format: biochemical; settings: at 30 nM
Protocol: Specifically, the measurement can be conducted, using [^3H]acetylhistone and a histone deacetylase fraction prepared by the method described in the above reference, adding a test compound to a reaction solution containing [^3H]acetylhistone and DTT, mixing the histone deacetylase fraction after 1 hour of pre-incubation at room temperature, reacting them for 2 hours at room temperature, adding 1M hydrochloric acid and ethyl acetate thereto, and then measuring radioactivity in the ethyl acetate layer separated by centrifugation by a scintillation counter.

Q: Which results are given for `CC(/C=C/C(=O)NO)=C\[C@@H](C)C(=O)c1ccc(N(C)C)cc1` [Trichostatin A]?
A: IC50 (HDAC): 2.1 nM; inhibition at 0.1 µM [1]: 40%; inhibition at 1 µM [1]: 58%

Q: What does the source list for `O=C(/C=C/c1ccc(CN(CCO)CCc2c[nH]c3ccccc23)cc1)NO` [NVP-LAQ824]?
A: IC50 (HDAC): 30 nM; inhibition at 0.03 µM [1]: 26%; inhibition at 0.3 µM [1]: 90%

Q: Which results are given for `CCC(=O)CCCCC[C@@H]1NC(=O)[C@H]2CCCCN2C(=O)[C@H]([C@@H](C)CC)NC(=O)[C@H](Cc2cn(OC)c3ccccc23)NC1=O` [Apicidin]?
A: inhibition at 0.03 µM [1]: 25%; inhibition at 0.3 µM [1]: 92%

Q: With `Nc1ccccc1NC(=O)c1ccc(CNC(=O)OCc2cccnc2)cc1` [MS-27-275] as the molecule, how does the IC50 (HDAC) read?
A: 2000 nM

Q: With `CCCC(=O)O` [butyric acid] as the molecule, how does the “HDAC inhibitory activity (order of magnitude)” value (HDAC) read?
A: mM order

Q: For `C/C=C1\NC(=O)[C@H]2CSSCC/C=C/[C@H](CC(=O)N[C@H](C(C)C)C(=O)N2)OC(=O)[C@H](C(C)C)NC1=O` [FK228], which inhibition at 0.01 µM [1] is on record?
A: 39%

Q: What about the inhibition at 0.1 µM [1] of the same molecule?
A: 97%

Q: And the inhibition at 0.03 µM [2]?
A: 97%

Q: What does the source list for `CC1NC(=O)CC2/C=C/CCSSCC(NC1=O)C(=O)NC(C(C)C)C(O)CC(=O)O2` (centres unmarked) [Compound A]?
A: inhibition at 0.001 µM [1]: 20%; inhibition at 0.01 µM [1]: 51%; inhibition at 0.1 µM [1]: 93%; inhibition at 1 µM [1]: 98%; HDAC inhibition [3]: about 85%; inhibition at 0.0003 µM [2]: 6%; inhibition at 0.003 µM [2]: 39%; inhibition at 0.03 µM [2]: 61%

Q: With `CCCC(CCC)C(=O)O` [Valproic acid (Na salt), Valproic acid] as the molecule, how does the inhibition at 300 µM [1] read?
A: 49%

Q: What about the inhibition at 1000 µM [1] of the same molecule?
A: 46%

Q: And the inhibition at 3000 µM [1]?
A: 79%

Q: Which IC50 (HDAC) does the source give for `CCCC(=O)O` [Butyric acid (Na salt), Butyric acid] here?
A: 280000 nM

Q: What about the inhibition at 300 µM [1] of the same molecule?
A: 27%

Q: And the inhibition at 3000 µM [1]?
A: 93%

Q: And the inhibition at 5000 µM [2]?
A: 78%

Q: For `CCCC(CCC)C(=O)O` [Valproic acid], which “HDAC inhibitory activity (order of magnitude)” value (HDAC) is on record?
A: mM order
